Reference: patent US11331299B2, “Medicinal use of serrulatane diterpenes” (The University of Sydney, priority 2016, dated 2022)
Like-named read-outs stand apart in the source and are kept apart here.

Test system: 280 human cancer cell lines
Assay: OncoPanel cell proliferation assay (10-day)
Type: cell-based
Conditions: Homo sapiens; for EC50: read-out: Cell Count EC50; for GI50: read-out: Cell Count GI50; for IC50: read-out: Cell Count IC50
[1] = Caov-3, CaOV3, Female GU - Ovary
[2] = ChaGo-K-1, ChaGoK1, Lung - NSCLC
[3] = D341 Med, CNS - Medulloblastoma
[4] = Detroit 562, Detroit 562, Head and Neck
[5] = DoTc2-4510, DoTc2 4510, Lymphoma
[6] = G292, G-292, clone A141B1, Soft Tissue - Osteosarcoma
[7] = HEL 92.1.7, HEL-92-1-7, Leukemia
[8] = HOS, Soft Tissue - Osteosarcoma

CC(C)=CCC[C@@H]1C(O)Oc2c(C)cc(O)c3c2[C@H]1CC[C@H]3C (some centres unmarked) [Compound 2, 5,18-epoxyserrulat-14-en-8,18-diol]
EC50 [1]: 10.2 µM | GI50 [1]: 9.61 µM | IC50 [1]: 10.2 µM | EC50 (Capan-2, Capan-2, Pancreas): 8.64 µM | GI50 (Capan-2, Capan-2, Pancreas): 8.48 µM | IC50 (Capan-2, Capan-2, Pancreas): 8.64 µM | EC50 [2]: 8.32 µM | GI50 [2]: 8.26 µM | IC50 [2]: 8.32 µM | EC50 [3]: 19.2 µM | GI50 [3]: 18.7 µM | IC50 [3]: 19.2 µM | EC50 (DB, Lymphoma): 3.23 µM | GI50 (DB, Lymphoma): 3.24 µM | IC50 (DB, Lymphoma): 3.25 µM | EC50 (DBTRG-05MG, CNS - Glioma): 12.2 µM | GI50 (DBTRG-05MG, CNS - Glioma): 12.8 µM | IC50 (DBTRG-05MG, CNS - Glioma): 13 µM | EC50 (DK-MG, CNS - Glioma): 1.64 µM | GI50 (DK-MG, CNS - Glioma): > 30 µM | IC50 (DK-MG, CNS - Glioma): > 30 µM | EC50 (DLD-1, DLD-1, Colon): 10.7 µM | GI50 (DLD-1, DLD-1, Colon): 11.2 µM | IC50 (DLD-1, DLD-1, Colon): 11.2 µM | EC50 (DMS-53, DMS53, Lung - SCLC): 5.91 µM | GI50 (DMS-53, DMS53, Lung - SCLC): 5.75 µM | IC50 (DMS-53, DMS53, Lung - SCLC): 5.95 µM | EC50 (DMS-114, DMS114, Lung - SCLC): 11.5 µM | GI50 (DMS-114, DMS114, Lung - SCLC): 13.1 µM | IC50 (DMS-114, DMS114, Lung - SCLC): 13.8 µM | EC50 (DOHH-2, DOHH-2, Lymphoma): 3.24 µM | GI50 (DOHH-2, DOHH-2, Lymphoma): 3.24 µM | IC50 (DOHH-2, DOHH-2, Lymphoma): 3.24 µM | EC50 (DU-145, DU145, Prostate): 21 µM | GI50 (DU-145, DU145, Prostate): 20.7 µM | IC50 (DU-145, DU145, Prostate): 21 µM | EC50 (Daoy, CNS - Medulloblastoma): 8.64 µM | GI50 (Daoy, CNS - Medulloblastoma): 8.64 µM | IC50 (Daoy, CNS - Medulloblastoma): 8.65 µM | EC50 (Daudi, Lymphoma): 3.93 µM | GI50 (Daudi, Lymphoma): 3.92 µM | IC50 (Daudi, Lymphoma): 3.93 µM | EC50 [4]: 14.5 µM | GI50 [4]: 14.4 µM | IC50 [4]: 14.5 µM | EC50 [5]: 6.07 µM | GI50 [5]: 5.84 µM | IC50 [5]: 6.07 µM | EC50 (EB2, Lymphoma): 23.3 µM | GI50 (EB2, Lymphoma): 23 µM | IC50 (EB2, Lymphoma): 23.3 µM | EC50 (EB-3, Lymphoma): 9.72 µM | GI50 (EB-3, Lymphoma): 9.71 µM | IC50 (EB-3, Lymphoma): 9.72 µM | EC50 (EFM-19, EFM-19, Breast): 11.2 µM | GI50 (EFM-19, EFM-19, Breast): 10.6 µM | IC50 (EFM-19, EFM-19, Breast): 11.2 µM | EC50 (EM-2, Leukemia): 10.8 µM | GI50 (EM-2, Leukemia): 10.8 µM | IC50 (EM-2, Leukemia): 10.8 µM | EC50 (FaDu, Head and Neck): 8.66 µM | GI50 (FaDu, Head and Neck): 8.66 µM | IC50 (FaDu, Head and Neck): 8.66 µM | EC50 [6]: 8.8 µM | GI50 [6]: 8.57 µM | IC50 [6]: 8.8 µM | EC50 (G-361, G-361, Skin (Melanoma)): 11.7 µM | GI50 (G-361, G-361, Skin (Melanoma)): 11.8 µM | IC50 (G-361, G-361, Skin (Melanoma)): 11.8 µM | EC50 (G-401, G-401, Kidney): 26 µM | GI50 (G-401, G-401, Kidney): 26.2 µM | IC50 (G-401, G-401, Kidney): 26.2 µM | EC50 (GA-10, GA-10, Lymphoma): 3.72 µM | GI50 (GA-10, GA-10, Lymphoma): 3.73 µM | IC50 (GA-10, GA-10, Lymphoma): 3.73 µM | EC50 (H4, CNS - Glioma): 3.06 µM | GI50 (H4, CNS - Glioma): > 30 µM | IC50 (H4, CNS - Glioma): > 30 µM | EC50 (HCT-15, HCT-15, Colon): 8.64 µM | GI50 (HCT-15, HCT-15, Colon): 9.48 µM | IC50 (HCT-15, HCT-15, Colon): 9.49 µM | EC50 (HCT-116, HCT-116, Colon): 6.68 µM | GI50 (HCT-116, HCT-116, Colon): 6.67 µM | IC50 (HCT-116, HCT-116, Colon): 6.68 µM | EC50 (HEC-1-A, Female GU - Uterus): 12.1 µM | GI50 (HEC-1-A, Female GU - Uterus): 12 µM | IC50 (HEC-1-A, Female GU - Uterus): 12.1 µM | EC50 [7]: 13.4 µM | GI50 [7]: 13.4 µM | IC50 [7]: 13.4 µM | EC50 (HLE, Liver): 10 µM | GI50 (HLE, Liver): 16 µM | IC50 (HLE, Liver): 16.4 µM | EC50 (HLF, Liver): 13.7 µM | GI50 (HLF, Liver): 15.6 µM | IC50 (HLF, Liver): 15.7 µM | EC50 (HMCB, Skin (Melanoma)): 6.68 µM | GI50 (HMCB, Skin (Melanoma)): 6.57 µM | IC50 (HMCB, Skin (Melanoma)): 6.68 µM | EC50 [8]: 4.82 µM | GI50 [8]: 4.81 µM
